# Source: patent publication EP4721737A1, “USE OF PHARMACEUTICAL COMPOSITION COMPRISING COMPOUND HAVING BIS(AZANYLYLIDENE) SULFONYL STRUCTURE FOR TREATING ANEMIA-RELATED DISEASES” (Scinnohub Pharmaceutical Co., Ltd., priority 2023, dated 2024)
# Molecular target: T1, PKR in ex vivo red blood cells from healthy individuals (Homo sapiens, UniProt P30613)
# T1 construct: endogenous in cells; host or cells: human red blood cells isolated from fresh peripheral blood of healthy individuals
# Assay: ex vivo pyruvate kinase (PKR) activity experiment, red blood cells of healthy individuals
# Assay type: cell-based
# Conditions: 3 hours co-cultivation
# Method: To test the effects of the compound of the present disclosure on PKR activation in ex vivo red blood cells from healthy individuals and patients with thalassemia.
# • i. 5 g of glucose, 85 mg of adenine, and 2.625 g of mannitol were weighed and added into a 50 mL centrifuge tube. 40 mL of PBS was added to dissolve (sonicate for 30 minutes until completely dissolved). The solution was filtered through a 0.22 µm filter, then added to 460 mL of sterile PBS and mixed thoroughly.
# • i. Fresh human peripheral blood was collected. K2EDTA was used as the anticoagulant. 1 part anticoagulant with 9 parts blood was mixed, then centrifuged at 500 g for 10 minutes at room temperature to remove the plasma. • ii. Packed red blood cells: 1.5 volumes of PBS were added, then centrifuged at 2000 ×g for 5 minutes at room temperature. After centrifugation, the supernatant was removed. This step was repeated twice. • iii. Diluted red blood cells: 1.5 volumes of PBS were added, then resuspended and mixed thoroughly. • iv. The diluted red blood cells were slowly added to 0.5 volume of 70% isotonic solution (e.g., 7.5 mL of diluted red blood cells + 3 mL of 70% isotonic solution Percoll) and centrifuged at 4000 ×g for 20 minutes at 4°C. • v. The supernatant was removed. The red blood cells at the bottom were washed once with 4-5 mL of PBS to elute the Percoll gel, and then centrifuged at 2000 ×g for 5 minutes at room temperature. • vi. The supernatant was removed. The red blood cells were counted and then diluted in AGAM medium containing 10% FBS to a density of 2 × 10^8 cells/mL for storage at 4°C.
# i. The red blood cells were seeded into a 96-well plate at a uniform density of 1 × 10^7 cells/mL, with 100 µL per well. The test compounds (dissolved in DMSO) were diluted and added to the cell culture medium, resulting in final compound concentrations of 3000, 1000, 300, 100, 10, 3, and 1 nM (with 1% DMSO). The cells and compounds were co-cultivated for 3 hours in a 37°C incubator with 5% CO2. Subsequently, the plate was centrifuged at 2000 g for 20 minutes, and the supernatant was discarded. 100 µL of red blood cell lysis buffer was added to the cell pellet, vortexed for 20 minutes, and centrifuged at 4000 g for 5 minutes. The supernatant was collected for analysis. ii. The reaction system was prepared according to the kit instructions (shown as the table below), 10 µL of the reaction system was added to each well of a 384-well plate, and 10 µL of red blood cell lysis buffer was took and mixed well (20 µL reaction system).
# iii. A black, transparent-bottomed 384-well plate was placed in a microplate reader to measure fluorescence at 540/590 nm. The fluorescence was read every 2 minutes for 1 hour.
# i. The Slope value was calculated over the assay time. Compound activation percentage was calculated using the 1% DMSO well as the control well. Activation percentage = (Slope of compound well / Slope of control well) × 100% ii. Dose-response curve was fit using the logarithmic compound concentration on the X-axis and the percent activation percentage on the Y-axis, the log(agonist) vs. response - variable slope function in GraphPad Prism 5 was used to determine the AC50 value for each compound on PKR activity. Y = min + (max−min)/(1+10^(∧)((LogAC50−X)×Hillslope)). [formula] The PKR agonist effects of the compound of the present disclosure on ex vivo red blood cells from healthy individuals and thalassemia patients were determined using the above assay. The AC50 values measured on ex vivo red blood cells from healthy individuals are as follows (A represents 0-100 nM, B represents 101-300 nM, and C represents 300-1000 nM): […]
# T1 sequence (P30613 whole entry): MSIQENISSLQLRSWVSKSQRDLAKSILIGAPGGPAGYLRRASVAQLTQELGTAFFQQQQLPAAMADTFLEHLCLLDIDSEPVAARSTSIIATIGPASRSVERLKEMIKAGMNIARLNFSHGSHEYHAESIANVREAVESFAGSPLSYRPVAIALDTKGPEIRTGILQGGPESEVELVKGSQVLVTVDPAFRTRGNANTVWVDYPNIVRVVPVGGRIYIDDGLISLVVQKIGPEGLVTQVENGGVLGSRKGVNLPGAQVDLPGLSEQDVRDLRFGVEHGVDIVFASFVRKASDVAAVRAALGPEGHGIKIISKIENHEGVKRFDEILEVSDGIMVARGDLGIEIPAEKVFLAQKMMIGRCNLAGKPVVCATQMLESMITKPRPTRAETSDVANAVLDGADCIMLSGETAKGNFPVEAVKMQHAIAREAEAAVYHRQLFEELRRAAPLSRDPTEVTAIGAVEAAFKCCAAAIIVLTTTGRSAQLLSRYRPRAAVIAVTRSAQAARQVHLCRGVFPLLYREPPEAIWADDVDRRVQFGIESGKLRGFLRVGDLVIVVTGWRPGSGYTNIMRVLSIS
row,SMILES,AC50
1,"O=C([C@H](CO)c1ccccc1)N1CC(=C2CN(S(=O)(=O)c3cnc4c(c3)OCCO4)C2)C1 [Compound 1, (S)-1-(1'-((2,3-dihydro-[1,4]dioxino[2,3-b]pyridin-7-yl)sulfonyl)-1',4'-dihydro-2H,2'H-[3,3'-diazetidinylidene]-1(4H)-yl)-3-hydroxy-2-phenylpropan-1-one]",101 to 300 nM
2,"O=C([C@H](CO)c1ccccc1)N1CC(=C2CN(S(=O)(=O)c3ccc4c(c3)OCCO4)C2)C1 [Compound 2, (S) -1-(1'-((2,3-dihydrobenzo[b][1,4]dioxin-6-yl)sulfonyl)-1',4'-dihydro-2H,2'H-[3,3'-diazetidinylidene]-1(4H)-yl)-3-hydroxy-2-phenylpropan-1-one]",300 to 1000 nM
3,"O=C([C@H](CO)c1ccccc1)N1CC(=C2CN(S(=O)(=O)c3ccc4ncsc4c3)C2)C1 [Compound 3, (S)-1-(1'-(benzo[d]thiazol-6-ylsulfonyl)-1',4'-dihydro-2H,2'H-[3,3'-diazetidinylidene]-1(4H)-yl)-3-hy droxy-2-phenylpropan-1-one]",101 to 300 nM
4,"O=C([C@H](CO)c1ccccc1)N1CC(=C2CN(S(=O)(=O)c3ccccn3)C2)C1 [Compound 4, (S)-3-hydroxy-2-phenyl-1-(1'-(pyridin-2-ylsulfonyl)-1',4'-dihydro-2H,2'H-[3.3'-diazetidinylidene]-1(4H)-yl)propan-1-one]",< 100 nM
5,"COc1ccc(S(=O)(=O)N2CC(=C3CN(C(=O)[C@H](CO)c4ccccc4)C3)C2)cc1 [Compound 5, (S)-3-hydroxy-1-(1'-((4-methoxyphenyl)sulfonyl)-1',4'-dihydro-2H,2'H-[3,3'-diazetidinylidene]-1(4H )-yl)-2-phenylpropan-1-one]",101 to 300 nM
6,"O=C([C@H](CO)c1ccccc1)N1CC(=C2CN(S(=O)(=O)c3ccc(OC(F)F)cc3)C2)C1 [Compound 7, (S)-1-(1'-((4-(difluoromethoxy)phenyl)sulfonyl)-1',4'-dihydro-2H,2'H-[3,3'-diazetidinylidene]-1(4H)-yl)-3-hydroxy-2-phenylpropan-1-one]",< 100 nM
7,"O=C([C@H](CO)c1ccccc1)N1CC(=C2CN(S(=O)(=O)c3ccc(OC(F)(F)F)cc3)C2)C1 [Compound 9, (S)-3-hydroxy-2-phenyl-1-(1'-((4-(trifluoromethoxy)phenyl)sulfonyl)-1',4'-dihydro-2H,2'H-[3,3'-diazetidinylidene]-1(4H)-yl)propan-1-one]",< 100 nM
8,O=C([C@H](CO)c1ccccc1)N1CC(=C2CN(S(=O)(=O)c3ccc(F)cc3)C2)C1 [Compound 10],< 100 nM
9,O=C([C@H](CO)c1ccccc1)N1CC(=C2CN(S(=O)(=O)c3ccc(OC(F)F)c(F)c3)C2)C1 [Compound 11],< 100 nM
10,"O=C([C@H](CO)c1ccccc1)N1CC(=C2CN(S(=O)(=O)c3ccc4c(c3)NCCO4)C2)C1 [Compound 12, (S)-1-(1'-((3,4-dihydro-2H-benzo[b][1,4]oxazin-6-yl)sulfonyl)-1',4'-dihydro-2H,2'H-[3,3'-diazetidinylidene]-1(4H)-yl)-3-hydroxy-2-phenylpropan-1-one]",300 to 1000 nM
11,"O=C(C(CO)c1ccc(F)cc1)N1CC(=C2CN(S(=O)(=O)c3ccc(OC(F)F)cc3)C2)C1 (stereo not drawn) [Compound 16, 1-(1'-((4-(difluoromethoxy)phenyl)sulfonyl)-1',4'-dihydro-2H,2'H-[3,3'-diazetidinylidene]-1(4H)-yl)-2-(4-fluorophenyl)-3-hydroxypropan-1-one]",< 100 nM
12,"O=C([C@H](CO)c1ccccc1)N1CC(=C2CN(S(=O)(=O)c3cc(F)c4c(c3)OCCO4)C2)C1 [Compound 20, (S)-1-(1'-((8-fluoro-2,3-dihydrobenzo[b][1,4]dioxin-6-yl)sulfonyl)-1',4'-dihydro-2H,2'H-[3,3'-diazetidinylidene]-1(4H)-yl)-3-hydroxy-2-phenylpropan-1-one]",300 to 1000 nM
13,"NC(C(=O)N1CC(=C2CN(S(=O)(=O)c3ccc(OC(F)F)cc3)C2)C1)c1ccc(F)cc1 (stereo not drawn) [Compound 22, 2-amino-1-(1'-((4-(difluoromethoxy)phenyl)sulfonyl)-1',4'-dihydro-2H,2'H-[3,3'-diazetidinylidene]-1 (4H)-yl)-2-(4-fluorophenyl)ethan-1-one]",< 100 nM
14,"O=C([C@H](CO)c1ccc(F)cc1)N1CC(=C2CN(S(=O)(=O)c3ccc4ncsc4c3)C2)C1 [Compound 25, (S)-1-(1'-(benzo[d]thiazol-6-ylsulfonyl)-1',4'-dihydro-2H,2'H-[3,3'-diazetidinylidene]-1(4H)-yl)-2-(4-fluorophenyl)-3-hydroxypropan-1-one]",300 to 1000 nM
15,"O=C(C(CO)c1ccc(F)cc1)N1CC(=C2CN(S(=O)(=O)c3ccc4c(c3)OC(F)(F)O4)C2)C1 (stereo not drawn) [Compound 36, 1-(1'-((2,2-difluorobenzo[d][1,3]dioxolan-5-yl)sulfonyl)-1',4'-dihydro-2H,2'H-[3,3'-diazetidinylidene]-1(4H)-yl)-2-(4-fluorophenyl)-3-hydroxypropan-1-one]",< 100 nM
16,"O=C(N1CC(=C2CN(S(=O)(=O)c3ccc(OC(F)F)cc3)C2)C1)C1(c2ccccc2)CCOC1 (stereo not drawn) [Compound 37, (1'-((4-(difluoromethoxy)phenyl)sulfonyl)-1',4'-dihydro-2H,2'H-[3,3'-diazetidinylidene]-1(4H)-yl)(3-phenyltetrahydrofuran-3-yl)methanone]",300 to 1000 nM
17,"O=C1COc2ccc(S(=O)(=O)N3CC(=C4CN(C(=O)[C@H](CO)c5ccccc5)C4)C3)cc2N1 [Compound 40, (S)-6-((1'-(3-hydroxy-2-phenylpropionyl)-1',4'-dihydro-2H,2'H-[3,3'-diazetidinylidene]-1(4H)-yl)sulfonyl)-2H-benzo[b][1,4]oxazine-3(4H)-one]",300 to 1000 nM
18,"CN1C(=O)COc2ccc(S(=O)(=O)N3CC(=C4CN(C(=O)[C@H](CO)c5ccccc5)C4)C3)cc21 [Compound 41, (S)-6-((1'-(3-hydroxy-2-phenylpropionyl)-1',4'-dihydro-2H,2'H-[3,3'-diazetidinylidene]-1(4H)-yl)sulfonyl)-4-methyl-2H-benzo[b][1,4]oxazine-3(4H)-one]",< 100 nM
19,"CN1CCN(c2cccc(C(O)C(=O)N3CC(=C4CN(S(=O)(=O)c5ccc6ncsc6c5)C4)C3)c2)CC1 (stereo not drawn) [Compound 43, 1-(1'-(benzo[d]thiazol-6-ylsulfonyl)-1',4'-dihydro-2H,2'H-[3,3'-diazetidinylidene]-1(4H)-yl)-2-hydroxy-2-(3-(4-methylpiperazin-1-yl)phenyl)ethan-1-one]",101 to 300 nM
20,"O=C(C(CO)c1cccnc1)N1CC(=C2CN(S(=O)(=O)c3ccc4ncsc4c3)C2)C1 (stereo not drawn) [Compound 48, 1-(1'-(benzo[d]thiazol-6-ylsulfonyl)-1',4'-dihydro-2H,2'H-[3,3'-diazetidinylidene]-1(4H)-yl)-3-hydroxy-2-(pyridin-3-yl)propan-1-one]",300 to 1000 nM
21,"O=C(C(CO)c1ccc(F)c(Cl)c1)N1CC(=C2CN(S(=O)(=O)c3ccccn3)C2)C1 (stereo not drawn) [Compound 59, 2-(3-chloro-4-fluorophenyl)-3-hydroxy-1-(1'-(pyridin-2-ylsulfonyl)-1',4'-dihydro-2H,2'H-[3,3'-diazetidinylidene]-1(4H)-yl)propan-1-one]",< 100 nM
22,"O=C(C(CO)c1ccc(F)c(F)c1)N1CC(=C2CN(S(=O)(=O)c3ccccn3)C2)C1 (stereo not drawn) [Compound 61, 2-(3,4-difluorophenyl)-3-hydroxy-1-(1'-(pyridin-2-ylsulfonyl)-1',4'-dihydro-2H,2'H-[3,3'-diazetidinylidene]-1(4H)-yl)propan-1-one]",101 to 300 nM
23,"Cn1cnc2ccc(S(=O)(=O)N3CC(=C4CN(C(=O)[C@H](CO)c5ccccc5)C4)C3)cc21 [Compound 63, (S)-3-hydroxy-1-(1'-((1-methyl-1H-benzimidazol-6-yl)sulfonyl)-1',4'-dihydro-2H,2'H-[3,3'-diazetidinylidene]-1(4H)-yl)-2-phenylpropan-1-one]",300 to 1000 nM
24,O=C([C@H](CO)c1ccccc1)N1CC(=C2CN(S(=O)(=O)c3ccc(Cl)cn3)C2)C1 [Compound 66],< 100 nM
